pIC50: −log10 of the molar value. Active and inactive are the calls of the source. No cut-off for these calls is given here.
How the values were obtained:
[1] = tested on: A549; assay: Antiproliferative activity against human A549 cells assessed as cell growth inhibition incubated for 72 hrs by MTT assay; type: functional, cell-based; conditions: A549, 72 h
[2] = target: Histone deacetylase (Homo sapiens) (UniProt Q13547+O15379+Q9UBN7+Q92769+Q9UQL6+Q8WUI4+Q9BY41+Q96DB2+P56524+Q9UKV0+Q969S8); conditions: HeLa, at 1 µM
Description: Inhibition of HDAC in human HeLa cell nuclear extracts at 1 uM

[3] = tested on: HeLa; assay: Antiproliferative activity against human HeLa cells assessed as cell growth inhibition incubated for 72 hrs by MTT assay; type: functional, cell-based
[4] = tested on: SGC-7901; assay: Antiproliferative activity against human SGC7901 cells assessed as cell growth inhibition incubated for 72 hrs by MTT assay; type: functional, cell-based; conditions: SGC-7901, 72 h
[5] = tested on: HCT-116; assay: Antiproliferative activity against human HCT116 cells assessed as cell growth inhibition incubated for 72 hrs by MTT assay; type: functional, cell-based; conditions: HCT-116, 72 h
[6] = target: Tubulin; assay: Inhibition of tubulin polymerization (unknown origin) by spectrophotometric method; type: protein-complex assay, Homo sapiens
[7] = target: T1, Histone deacetylase 8 (Homo sapiens, UniProt Q9BY41); assay: Inhibition of HDAC8 (unknown origin) using Boc-Lys(Ac)-AMC as substrate incubated for 60 mins by fluorescence assay
T1 sequence (Q9BY41 whole entry): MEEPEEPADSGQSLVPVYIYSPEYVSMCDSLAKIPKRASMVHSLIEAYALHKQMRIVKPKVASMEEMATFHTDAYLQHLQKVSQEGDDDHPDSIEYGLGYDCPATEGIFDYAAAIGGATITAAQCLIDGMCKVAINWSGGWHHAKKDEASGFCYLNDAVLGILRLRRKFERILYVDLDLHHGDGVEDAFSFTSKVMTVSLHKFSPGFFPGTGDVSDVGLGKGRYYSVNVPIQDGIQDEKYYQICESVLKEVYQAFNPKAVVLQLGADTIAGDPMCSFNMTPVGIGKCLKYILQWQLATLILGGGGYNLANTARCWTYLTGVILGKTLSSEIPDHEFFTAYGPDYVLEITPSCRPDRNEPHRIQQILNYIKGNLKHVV

[8] = tested on: MCF7; assay: Antiproliferative activity against human MCF7 cells assessed as cell growth inhibition incubated for 72 hrs by MTT assay; type: functional, cell-based; conditions: MCF7, 72 h
[9] = target: Histone deacetylase 1 (Homo sapiens, UniProt Q13547); assay: Inhibition of HDAC1 (unknown origin) using Boc-Lys(Ac)-AMC as substrate incubated for 60 mins by fluorescence assay
Sequence of Histone deacetylase 1 (Q13547 whole entry): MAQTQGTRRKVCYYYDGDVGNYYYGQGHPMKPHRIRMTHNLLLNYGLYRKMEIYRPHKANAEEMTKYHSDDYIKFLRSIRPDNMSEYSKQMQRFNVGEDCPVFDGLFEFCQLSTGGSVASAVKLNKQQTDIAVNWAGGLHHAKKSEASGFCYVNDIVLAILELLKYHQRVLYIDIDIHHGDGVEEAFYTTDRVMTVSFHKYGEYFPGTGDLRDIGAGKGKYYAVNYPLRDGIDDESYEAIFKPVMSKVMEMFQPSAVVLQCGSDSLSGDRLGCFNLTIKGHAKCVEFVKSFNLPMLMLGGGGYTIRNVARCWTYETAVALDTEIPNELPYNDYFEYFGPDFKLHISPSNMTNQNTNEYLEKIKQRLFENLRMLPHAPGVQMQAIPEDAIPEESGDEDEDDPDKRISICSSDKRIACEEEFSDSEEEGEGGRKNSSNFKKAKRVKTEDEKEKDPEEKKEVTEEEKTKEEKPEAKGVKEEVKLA

[10] = tested on: NCI-H226; assay: Antiproliferative activity against human NCI-H226 cells assessed as cell growth inhibition incubated for 72 hrs by MTT assay; type: functional, cell-based; conditions: NCI-H226, 72 h
[11] = tested on: MDA-MB-231; assay: Antiproliferative activity against human MDA-MB-231 cells assessed as cell growth inhibition incubated for 72 hrs by MTT assay; type: functional, cell-based; conditions: MDA-MB-231, 72 h
[12] = tested on: MGC-803; assay: Antiproliferative activity against human MGC803 cells assessed as cell growth inhibition incubated for 72 hrs by MTT assay; type: functional, cell-based; conditions: MGC-803, 72 h
[13] = tested on: LoVo; assay: Antiproliferative activity against human LoVo cells assessed as cell growth inhibition incubated for 72 hrs by MTT assay; type: functional, cell-based
[14] = target: Histone deacetylase; assay: Inhibition of HDAC in human HeLA cell nuclear extracts; type: cell-based
[15] = target: T2, Protein deacetylase HDAC6 (Homo sapiens, UniProt Q9UBN7); assay: Inhibition of HDAC6 (unknown origin) using Boc-Lys(Ac)-AMC as substrate incubated for 60 mins by fluorescence assay
T2 sequence (Q9UBN7 whole entry): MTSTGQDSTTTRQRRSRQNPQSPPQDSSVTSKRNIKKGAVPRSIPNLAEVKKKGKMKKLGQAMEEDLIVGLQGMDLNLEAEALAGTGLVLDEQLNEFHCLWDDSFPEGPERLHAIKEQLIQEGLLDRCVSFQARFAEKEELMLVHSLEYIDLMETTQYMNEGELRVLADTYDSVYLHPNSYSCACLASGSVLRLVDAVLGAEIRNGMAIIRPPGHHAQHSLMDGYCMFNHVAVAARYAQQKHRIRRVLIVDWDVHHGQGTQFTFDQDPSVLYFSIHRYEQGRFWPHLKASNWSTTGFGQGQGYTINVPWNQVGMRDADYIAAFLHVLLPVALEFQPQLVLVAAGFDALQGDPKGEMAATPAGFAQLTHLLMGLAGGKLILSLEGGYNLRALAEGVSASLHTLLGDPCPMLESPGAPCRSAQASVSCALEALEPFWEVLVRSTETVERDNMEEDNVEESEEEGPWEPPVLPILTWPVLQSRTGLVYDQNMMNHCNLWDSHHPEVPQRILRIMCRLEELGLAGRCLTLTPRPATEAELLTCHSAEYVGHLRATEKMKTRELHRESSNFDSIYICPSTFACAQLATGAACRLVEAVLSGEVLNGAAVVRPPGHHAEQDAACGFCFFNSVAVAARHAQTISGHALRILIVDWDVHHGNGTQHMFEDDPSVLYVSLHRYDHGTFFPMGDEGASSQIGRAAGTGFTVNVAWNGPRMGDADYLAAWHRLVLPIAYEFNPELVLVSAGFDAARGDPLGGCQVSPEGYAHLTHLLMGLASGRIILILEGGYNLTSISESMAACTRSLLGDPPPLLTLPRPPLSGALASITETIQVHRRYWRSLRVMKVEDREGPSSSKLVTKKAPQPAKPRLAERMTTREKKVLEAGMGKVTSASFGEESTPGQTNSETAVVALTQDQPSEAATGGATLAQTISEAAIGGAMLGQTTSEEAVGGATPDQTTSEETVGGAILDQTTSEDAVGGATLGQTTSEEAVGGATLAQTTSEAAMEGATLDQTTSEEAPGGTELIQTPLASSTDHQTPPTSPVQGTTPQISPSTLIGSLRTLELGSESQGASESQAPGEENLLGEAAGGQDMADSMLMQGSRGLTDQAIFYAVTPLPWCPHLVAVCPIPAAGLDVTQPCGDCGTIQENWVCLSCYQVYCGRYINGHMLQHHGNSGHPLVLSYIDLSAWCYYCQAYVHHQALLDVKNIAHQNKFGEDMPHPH

[16] = tested on: BGC-823; assay: Antiproliferative activity against human BGC823 cells assessed as cell growth inhibition incubated for 72 hrs by MTT assay; type: functional, cell-based; conditions: BGC-823, 72 h
[17] = tested on: NCI-H460; assay: Antiproliferative activity against human NCI-H460 cells assessed as cell growth inhibition incubated for 72 hrs by MTT assay; type: functional, cell-based; conditions: NCI-H460, 72 h
[18] = tested on: A549; assay: Induction of apoptosis in human A549 cells assessed as early apoptotic cells at 10 uM incubated for 72 hrs by Annexin V-FITC/propidium iodide-staining based flow cytometric analysis (reference value: 1.8%); type: functional
[19] = tested on: A549; assay: Induction of cell cycle arrest in human A549 cells assessed as accumulation at G2/M phase at 10 uM incubated for 36 hrs by propidium iodide staining based flow cytometry (reference value: 10.83%); type: functional
[20] = tested on: A549; assay: Induction of cell cycle arrest in human A549 cells assessed as accumulation at S phase at 10 uM incubated for 36 hrs by propidium iodide staining based flow cytometry (reference value: 16.66%); type: functional
[21] = tested on: A549; assay: Induction of apoptosis in human A549 cells assessed as live cells at 10 uM incubated for 72 hrs by Annexin V-FITC/propidium iodide-staining based flow cytometric analysis (reference value: 89.8%); type: functional
[22] = tested on: A549; assay: Induction of apoptosis in human A549 cells assessed as late apoptotic cells at 10 uM incubated for 72 hrs by Annexin V-FITC/propidium iodide-staining based flow cytometric analysis (reference value: 5.69%); type: functional
[23] = tested on: A549; assay: Induction of apoptosis in human A549 cells assessed as necrotic cells at 10 uM incubated for 72 hrs by Annexin V-FITC/propidium iodide-staining based flow cytometric analysis (reference value: 2.76%); type: functional
[24] = tested on: A549; assay: Induction of cell cycle arrest in human A549 cells assessed as accumulation at G0/G1 phase at 10 uM incubated for 36 hrs by propidium iodide staining based flow cytometry (reference value: 72.51%); type: functional
[25] = tested on: A549; assay: Antimigratory activity in human A549 cells at 5 to 10 uM incubated for 12 hrs in presence of mitomycin by inverted microscopic-based wound healing assay; type: functional, cell-based

SMILES	pIC50 [1]	inhibition [2] [%]	pIC50 [3]	pIC50 [4]	pIC50 [13]	further results
COc1ccc(/C=C/C(=O)c2cc(OC)c(OC)c(OC)c2)cc1OCCCC(=O)NO	4.91	21.8	4.88	4.76	–	–
COc1ccc(/C=C(\C)C(=O)c2cc(OC)c(OC)c(OC)c2)cc1OCCCCCCC(=O)NO	4.94	86	4.78	4.70	–	–
COc1ccc(/C=C(\C)C(=O)c2cc(OC)c(OC)c(OC)c2)cc1OCCCCCCCC(=O)NO	4.70	92.3	4.71	4.55	5.00	pIC50 [5]: 4.97; pIC50 [6]: 5.30; pIC50 [7]: 5.31; pIC50 [8]: 4.92; pIC50 [9]: 7.82; pIC50 [10]: 4.63; pIC50 [11]: 4.93; pIC50 [12]: 4.79; IC50 [14]: 0.0715 µM; pIC50 [15]: 7.87; pIC50 [16]: 4.82; pIC50 [17]: 4.69
COc1ccc(/C=C/C(=O)c2cc(OC)c(OC)c(OC)c2)cc1O	5.99	–	6.36	5.95	5.40	pIC50 [5]: 5.55; pIC50 [6]: 5.40; pIC50 [8]: 5.07; pIC50 [10]: 5.36; pIC50 [11]: 5.37; pIC50 [12]: 5.08; pIC50 [16]: 5.12; pIC50 [17]: 5.30
COc1ccc(/C=C/C(=O)c2cc(OC)c(OC)c(OC)c2)cc1OCCCCC(=O)NO	4.84	32.9	4.59	< 4.30	–	–
COc1ccc(/C=C(\C)C(=O)c2cc(OC)c(OC)c(OC)c2)cc1OCCCCC(=O)NO	5.84	35.4	5.50	4.86	–	–
COc1ccc(/C=C/C(=O)c2cc(OC)c(OC)c(OC)c2)cc1OCCCCCCC(=O)NO	5.15	87.3	4.67	4.61	4.90	pIC50 [5]: 4.52; pIC50 [6]: 4.98; pIC50 [7]: 5.41; pIC50 [8]: 4.75; pIC50 [9]: 7.44; pIC50 [10]: 4.81; pIC50 [11]: 4.82; pIC50 [12]: 4.99; IC50 [14]: 0.1326 µM; pIC50 [15]: 8.34; pIC50 [16]: 4.94; pIC50 [17]: 4.88
COc1ccc(/C=C(\C)C(=O)c2cc(OC)c(OC)c(OC)c2)cc1OCCCCCC(=O)NO	4.87	74.8	4.98	4.85	–	–
COc1ccc(/C=C(\C)C(=O)c2cc(OC)c(OC)c(OC)c2)cc1O	5.82	–	< 4.30	5.69	–	–
O=C(CCCCCCC(=O)Nc1ccccc1)NO [VORINOSTAT]	–	–	–	5.99	5.67	Activity [18]: 7.17%; Activity [19]: 50.86%; Activity [20]: 39.53%; Activity [21]: 60.3%; Activity [22]: 24%; Activity [23]: 8.58%; Activity [24]: 9.61%; Activity [25]: Active
COc1ccc(/C=C/C(=O)c2cc(OC)c(OC)c(OC)c2)cc1OCCCCCCCC(=O)NO	4.88	84.8	4.43	< 4.30	–	–
COc1ccc(/C=C/C(=O)c2cc(OC)c(OC)c(OC)c2)cc1OCCCCCC(=O)NO	5.03	78.5	4.61	4.60	–	–

— ChEMBL document CHEMBL4393743, “Anti-tumor activity evaluation of novel tubulin and HDAC dual-targeting inhibitors” (Bioorg Med Chem Lett, 2019)
